# According to patent US20100105727A1, “NOVEL BENZAMIDE DERIVATIVES AND PROCESS FOR THE PREPARTION THEREOF” (DONG-A-PHARM. CO., LTD., priority 2007, published 2010):
# Legend:
# hERG potassium channel = biological target: T1, hERG potassium channel (Homo sapiens, UniProt Q12809); test: Binding affinity of compounds for hERG receptor ([H3]-Astemizole displacement, HEK-293 membrane lysates); settings: % inhibition of specific binding of 1.5 nM [H3]-Astemizole at 10 μM test material
# T1 construct: host or cells: HEK-293
# T1 sequence (Q12809 whole entry): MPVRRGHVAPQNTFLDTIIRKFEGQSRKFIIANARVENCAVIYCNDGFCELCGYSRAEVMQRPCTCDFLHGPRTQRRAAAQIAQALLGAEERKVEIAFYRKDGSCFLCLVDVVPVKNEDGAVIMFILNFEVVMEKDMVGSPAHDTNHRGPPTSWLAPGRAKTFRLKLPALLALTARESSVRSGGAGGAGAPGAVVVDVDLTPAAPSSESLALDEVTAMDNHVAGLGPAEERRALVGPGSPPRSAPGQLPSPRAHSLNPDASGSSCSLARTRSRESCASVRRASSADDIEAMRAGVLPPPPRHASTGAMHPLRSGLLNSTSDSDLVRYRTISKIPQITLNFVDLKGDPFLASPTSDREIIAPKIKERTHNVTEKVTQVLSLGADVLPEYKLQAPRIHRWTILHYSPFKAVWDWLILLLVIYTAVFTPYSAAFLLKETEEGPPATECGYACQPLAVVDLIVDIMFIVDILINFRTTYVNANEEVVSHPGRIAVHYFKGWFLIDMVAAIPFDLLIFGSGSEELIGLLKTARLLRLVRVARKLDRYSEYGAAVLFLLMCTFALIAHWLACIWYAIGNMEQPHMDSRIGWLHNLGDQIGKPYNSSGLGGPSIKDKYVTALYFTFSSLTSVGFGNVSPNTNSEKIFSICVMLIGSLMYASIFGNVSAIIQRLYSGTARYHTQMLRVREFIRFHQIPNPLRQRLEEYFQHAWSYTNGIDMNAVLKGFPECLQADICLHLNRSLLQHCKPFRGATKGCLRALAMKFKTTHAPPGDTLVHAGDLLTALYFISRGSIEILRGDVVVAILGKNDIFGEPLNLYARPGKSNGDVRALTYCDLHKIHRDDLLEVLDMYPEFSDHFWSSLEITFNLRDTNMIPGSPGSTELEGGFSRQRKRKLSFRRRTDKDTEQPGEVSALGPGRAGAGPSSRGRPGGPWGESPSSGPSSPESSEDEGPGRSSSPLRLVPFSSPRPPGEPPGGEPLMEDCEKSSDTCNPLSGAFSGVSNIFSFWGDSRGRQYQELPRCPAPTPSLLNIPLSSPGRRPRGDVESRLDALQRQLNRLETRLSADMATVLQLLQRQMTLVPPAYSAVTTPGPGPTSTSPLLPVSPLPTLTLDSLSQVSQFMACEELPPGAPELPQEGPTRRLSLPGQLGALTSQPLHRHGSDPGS
# Protocol: Membrane lysates were obtained from mammalian HEK-293 cells expressing the hERG potassium channel and used in binding assay experiments. […] After incubation was completed, the radioactivity bound to the hERG K+ channel was counted. The affinity of each test material for the hERG K+ channel was calculated from % inhibition of specific binding of the radioligand to the hERG K+ channel, resulting from the action of the test material.
# human 5-HT4 receptor = biological target: T2, human 5-HT4 receptor (Homo sapiens, UniProt Q13639); test: Binding affinity of compounds for 5-HT4 receptor (radioligand displacement, membrane lysates of COS-7 cells); settings: inhibition of specific binding of 0.595 nM [H3]-AGR113808; COS-7 cell membrane lysates expressing human 5-HT4 receptor
# T2 construct: expressed in transfected cells; host or cells: COS-7
# T2 sequence (Q13639 whole entry): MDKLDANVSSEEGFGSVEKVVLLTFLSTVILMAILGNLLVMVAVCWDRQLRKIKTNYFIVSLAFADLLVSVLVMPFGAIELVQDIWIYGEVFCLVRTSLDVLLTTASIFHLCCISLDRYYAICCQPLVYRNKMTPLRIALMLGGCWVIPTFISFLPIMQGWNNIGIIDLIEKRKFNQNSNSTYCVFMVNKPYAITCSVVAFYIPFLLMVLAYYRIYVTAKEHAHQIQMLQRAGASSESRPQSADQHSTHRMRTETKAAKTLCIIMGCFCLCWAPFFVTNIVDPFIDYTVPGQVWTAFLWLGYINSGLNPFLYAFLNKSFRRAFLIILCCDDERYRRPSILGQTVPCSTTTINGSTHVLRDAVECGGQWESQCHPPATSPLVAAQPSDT
# Protocol: For this purpose, COS-7 cells expressing the human 5-HT4 receptor were constructed and lysed to obtain cell membrane lysates which were then used in binding assay experiments. For binding assay, the membrane lysates were mixed and incubated with different concentrations of test materials and [H3]-AGR113808. […] After incubation was completed, the reaction products were collected in a GF/B glass fiber filter using a Packard cell harvester, and the bound radioactivity was then determined using a liquid cell scintillation counter (Packard TopCount NXT™, Perkin Elmer). Specific binding of the radioligand to the 5-HT4 receptor was calculated by subtracting the non-specific binding of the radioligand from the total radioligand binding. IC50 was calculated from % inhibition of specific binding of the radioligand to the 5-HT4 receptor, with respect to varying concentrations of the test materials.
# male ICR mice = settings: male, ICR, mouse, in vivo, po, 2 weeks
# Protocol: In order to examine acute toxicity of compounds according to the present invention, the following experiment was carried out.
# Over the entire experimental period of 2 weeks, the minimum lethal dose (MLD, mg/kg) of the compound was investigated by the observation of the mortality, body weight and clinical symptoms of animals.
smiles,measurement,setting,value
"COc1cc(N)c(Cl)cc1C(=O)N[C@H]1CCN(CCC(=O)Nc2cccc3ncccc23)C[C@H]1OC (relative stereo) [Compound 56, cis-4-amino-5-chloro-N-[1-(3-oxo-3-(quinolin-5-yl-amino)propyl)-3-methoxypiperidin-4-yl]-2-methoxybenzamide]",hERG binding affinity (% at 10 μM),hERG potassium channel,23%
same,IC50,human 5-HT4 receptor,11 nM
same,"Minimum lethal dose (MLD, mg/kg)",male ICR mice,>1000 mg/kg
